From ChEMBL document CHEMBL5728197, “KDM1A inhibitors for the treatment of disease” (2021) come the findings set out here.

The target in this assay is Lysine-specific histone demethylase 1A (Homo sapiens, UniProt O60341). In words: Biological Activity Assay: Assaying the inhibition of KDM1A can be determined in vitro, in cultured cells, and in animals. There are a variety of spectrophotometric methods to detect the results of demethylation of methylated lysines, viz., detecting the products of KDM1A demethylase oxidative activity on a peptide fragment of at least 18 amino acid representing the N-terminus of the histone H3 substrate that contains a monomethyl at the fourth lysine residue. Hydrogen peroxide, one product of the KDM1A demethylase reaction, reacts with horseradish peroxidase and dihydroxyphenoxazine (ADHP) to produce the fluorescent compound resorufin (excitation=530-560 nm:emission=590 nm). The KDM1A demethylase enzyme activity can obtained from mammalian cells or tissues expressing KDM1A from an endogenous or recombinant gene and purified or assayed from a whole cell extract. These methods can be used to determine the concentration of the disclosed compounds can inhibit fifty percent of the enzyme activity (IC50).

The IC50 is the concentration needed to halve the response being measured.

With `COc1ccc([C@@H]2C[C@H]2NC(=O)COC[C@H](NC(=O)c2ccc(F)cc2)C(=O)N2CCOCC2)cc1`, the IC50 is greater than 1000 nM.

Regarding `O=C(N[C@@H](COCCN[C@@H]1C[C@H]1c1ccc(F)cc1)C(=O)N1CCOCC1)c1ccc(F)cc1`, the half-maximal inhibitory concentration (IC50) is less than 1000 nM.
